# From US8058417B2, “Biosynthetic pathway and genes required for tropodithietic acid biosynthesis in silicibacter TM1040” (priority 2006, dated 2011)
# Columns and labels:
# [1] = tested on: Mycobacterium tuberculosis strain H37Rv; assay: Minimal Inhibitory Concentration (MIC) of TDA against Mycobacterium tuberculosis; type: cell-based
# Text: Against Mycobacterium tuberculosis strain H37Rv
# V. anguillarium [2] = assay: Swimming (motility) of V. anguillarium exposed to TDA; type: cell-based, Vibrio anguillarium; conditions: exposed to 5 ug TDA per ml (ca. 3x MIC)
# Text: It is unlikely that the mechanism of action of TDS involves inhibition of protein, DNA or RNA synthesis, transcription, or translation, all of which would require more time to inhibit.
# Vibrio anguillarium = assay: Minimal Inhibitory Concentration (MIC) of TDA against Vibrio anguillarium; type: cell-based; conditions: FIG. 12
# Text: FIG. 12 is a graph showing the efficacy of TDA against Vibrio anguillarum, as described in Example 10.
# V. anguillarium [3] = assay: Regrowth of V. anguillarium in fresh nutrient broth after TDA exposure (bactericidal test); type: cell-based, Vibrio anguillarium; conditions: 5 ug per ml (3x MIC) for 90 minutes, FIG. 13
# Description: FIG. 13 is a graph showing the bactericidal character of TDA against Vibrio anguillarum, illustrating the results using control (squares; buffer only), control 0.001 (circles), TDA (triangles), and TDA 0.001 (inverted triangles), as described in Example 10. V. anguillarium was exposed to 5 ug TDS per ml (3× MIC) for 90 minutes, after which the cells were washed and suspended in fresh nutrient broth. […] The results, as set forth in the graph of FIG. 13 indicate that the activity of TDA is bactericidal for this bacterial species, not simply bacteristatic.
# [4] = tested on: Methicillin-resistant Staphylococcus aureus (MRSA) strain USA300; assay: Minimal Inhibitory Concentration (MIC) of TDA against MRSA; type: cell-based
# Text: Against Methicillin-resistant Staphylococcus aureus (MRSA) strain USA300
compound,measurement,setting,value
"O=C(O)c1c(=O)cccc2ssc12 [TDA, tropodithietic acid]",Result in words: killing of M. tuberculosis,[1],kills
same,MIC,[1]; M. tuberculosis strain H37Rv,7.8 µg/mL
same,Time until V. anguillarium stopped swimming,V. anguillarium [2],≤ 70 s
same,MIC,Vibrio anguillarium,1.5 µg/mL
same,Result in words: killing of V. anguillarium,Vibrio anguillarium,kills
same,Character of activity (bactericidal vs bacteristatic),V. anguillarium [3],bactericidal
same,Growth of exposed cells after washing and suspension in fresh nutrient broth,V. anguillarium [3]; control cells exposed to buffer grew normally,failed to grow
same,MIC,[4],40 µg/mL
same,Result in words: killing of MRSA,[4],kills
